We go through two compounds from ChEMBL document CHEMBL1240392 (Antimicrob Agents Chemother, 2010).

Converted amounts (≈) assume the structure as drawn. The source made the active and inactive calls. The rule behind the calls is not given here.

One data set in a line: in vivo. The conditions noted are these: New Zealand, rabbit, im, 120 mg/kg.
Data set [1] can be described thus: Cmax in C57BL/6 mouse pneumonia model at 30 mg/kg, im. The data set is classed as ADME, organism-based. The arrangement: dose 30 mg/kg, route intramuscular. Conditions: in vivo.
Data set [2] is described as follows: AUC in C57BL/6 mouse pneumonia model at 30 mg/kg, im. The data set is classed as ADME, organism-based. Further details: dose 30 mg/kg, route intramuscular. Conditions: in vivo.
Data set [3] can be described thus: AUC in New Zealand rabbit meningitis model at 120 mg/kg, im. Conditions: in vivo. In kind it is ADME, organism-based, Oryctolagus cuniculus. The arrangement: dose 120 mg/kg, route intramuscular.
Data set [4] can be described thus: Half life in New Zealand rabbit meningitis model at 120 mg/kg, im. Further details: dose 120 mg/kg, route intramuscular. The data set is classed as ADME, organism-based, Oryctolagus cuniculus. Conditions: in vivo.
The nature of data set [5]: Half life in C57BL/6 mouse pneumonia model at 30 mg/kg, im. The data set is classed as ADME, organism-based. Further details: dose 30 mg/kg, route intramuscular. Conditions: in vivo.
In data set [6] the test system is Acinetobacter baumannii. Nature of the data set: Antimicrobial activity against Acinetobacter baumannii 506. The data set is classed as functional.
Data set [7] relates to Acinetobacter baumannii. Nature of the data set: Antimicrobial activity against Acinetobacter baumannii clinical isolate. In kind it is functional.
Data set [8] in a line: Ratio of AUC to MIC for Acinetobacter baumannii 1327 in pharmacokinetic-pharmacodynamic C57BL/6 mouse pneumonia model at 30 mg/kg, im. The data set is classed as functional. The conditions noted are these: route intramuscular.
A short description of data set [9]: Ratio of Cmax to MIC for Acinetobacter baumannii 1327 in pharmacokinetic-pharmacodynamic New Zealand rabbit meningitis model at 120 mg/kg, im. The data set is classed as functional. The conditions noted are these: route intramuscular.
The subject of data set [10] is Acinetobacter baumannii. As to the kind of experiment: Antimicrobial activity against Acinetobacter baumannii 1327. In kind it is functional.
Data set [11] has as its system Acinetobacter baumannii. As to the kind of experiment: Antimicrobial activity against Acinetobacter baumannii infected in C57BL/6 mouse model assessed as reduction in bacterial count per gram of lung at total dose of 120 mg/kg/day, im administered as four divided doses after 72 hrs (RVb = 10.6+/-0.27). In kind it is functional, organism-based.
In data set [12] the test system is Acinetobacter baumannii. As to the kind of experiment: Antimicrobial activity against Acinetobacter baumannii 1417. In kind it is functional.
Data set [13] is described as follows: Ratio of Cmax to MIC for Acinetobacter baumannii 1327 in pharmacokinetic-pharmacodynamic C57BL/6 mouse pneumonia model at 30 mg/kg, im. In kind it is functional. The conditions noted are these: route intramuscular.
A short description of data set [14]: T>MIC in Acinetobacter baumannii infected New Zealand rabbit meningitis model at 120 mg/kg, im. In kind it is functional. Conditions: route intramuscular.
Data set [15] can be described thus: Ratio of AUC to MIC for Acinetobacter baumannii 1327 in pharmacokinetic-pharmacodynamic New Zealand rabbit meningitis model at 120 mg/kg, im. In kind it is functional. The conditions noted are these: route intramuscular.
In data set [16] the test system is Acinetobacter baumannii. As to the kind of experiment: Antimicrobial activity against Acinetobacter baumannii 506 after 24 hrs by time-kill assay. The data set is classed as functional, organism-based.
Data set [17] deals with Acinetobacter baumannii. As to the kind of experiment: Antimicrobial activity against Acinetobacter baumannii 1327 after 24 hrs by time-kill assay. In kind it is functional, organism-based.
Data set [18] concerns Acinetobacter baumannii. Nature of the data set: Antimicrobial activity against Acinetobacter baumannii infected in C57BL/6 mouse model assessed as reduction in bacterial count in blood at total dose of 120 mg/kg/day, im administered as four divided doses after 72 hrs. In kind it is functional. The arrangement: scale not given: the % may be the effect or the level left. Conditions: route intramuscular.

The nature of data set [19]: T>MIC in Acinetobacter baumannii infected C57BL/6 mouse pneumonia model at 30 mg/kg, im. The data set is classed as functional. The conditions noted are these: route intramuscular.
Data set [20] has as its system Acinetobacter baumannii. As to the kind of experiment: Antimicrobial activity against Acinetobacter baumannii 1417 after 24 hrs by time-kill assay. The data set is classed as functional, organism-based.
Data set [21] concerns Acinetobacter baumannii. As to the kind of experiment: Antibacterial activity against Acinetobacter baumannii infected in C57BL/6 mouse model assessed as survival rate at total dose of 120 mg/kg/day, im administered as four divided doses measured after 72 hrs post last dose relative to control. The conditions noted are these: route intramuscular. In kind it is functional.

Data set [22] deals with Acinetobacter baumannii. As to the kind of experiment: Antimicrobial activity against Acinetobacter baumannii 940 after 24 hrs by time-kill assay. The data set is classed as functional, organism-based.
In data set [23] the test system is Acinetobacter baumannii. As to the kind of experiment: Antimicrobial activity against Acinetobacter baumannii 940. In kind it is functional.

Description for in vivo: Cmax in New Zealand rabbit meningitis model at 120 mg/kg, im

The term Cmax denotes the maximum level reached in the sampled fluid or tissue. A word on the AUC: it is the area under the concentration-time curve, a measure of exposure. The term half-life denotes the time in which the quantity being followed falls by half. Regarding `C[C@@H](O)[C@H]1C(=O)N2C(C(=O)O)=C(SCCN=CN)C[C@H]12` [IMIPENEM ANHYDROUS], the values for the maximum concentration (Cmax) (in the data set “in vivo”; in [1]) were 25400 ng/mL and 23200 ng/mL, respectively. In addition, the area under the curve (AUC) in data set [2] was 11300 ng·h/mL; in data set [3], 50400 ng·h/mL. Moreover, the half-life was 1.74 h in data set [4] and 0.26 h in [5].

The term MBC denotes the lowest tested concentration that kills the bacteria rather than only halting them. A word on the MIC: it is the least concentration at which growth counts as inhibited. Turning to `C[C@@H](O)[C@H]1C(=O)N2C(C(=O)O)=C(SCCNC=N)C[C@H]12` [IMIPENEM ANHYDROUS], the minimal bactericidal concentration (MBC) against Acinetobacter baumannii [6], in the data set on Acinetobacter baumannii [10], in the data set with Acinetobacter baumannii [12] and against Acinetobacter baumannii [23] was 32 µg/mL (≈ 107 µM) each time. Moreover, the MIC against Acinetobacter baumannii [6] was 32 µg/mL (≈ 107 µM); against Acinetobacter baumannii [7] it was not below 64 µg/mL; against Acinetobacter baumannii [10], 32 µg/mL (≈ 107 µM); against Acinetobacter baumannii [12], 32 µg/mL (≈ 107 µM); with Acinetobacter baumannii [23], 32 µg/mL (≈ 107 µM). In addition, the Ratio in [8] was 0.35; in data set [9], 0.79; in [13], 0.73; in data set [15], 1.58. Also, the outcome with Acinetobacter baumannii [11], in the data set on Acinetobacter baumannii [16], in the data set on Acinetobacter baumannii [17], in the data set on Acinetobacter baumannii [20] and in the data set with Acinetobacter baumannii [22] was Active. Also, the “T>MIC” value in data set [14] and in data set [19] was 0 h throughout. Moreover, the Activity in the data set with Acinetobacter baumannii [18] was found to be 30.8%. Besides, in the data set with Acinetobacter baumannii [21], the survival at 120 mg/kg/day worked out at 28.6%.
